One block for each compound: values may come before it.
Experiments:
Hepatocyte = assay: Drug metabolism in human hepatocytes assessed as glucuronidation; assay type: ADME, cell-based
[1] = target: Ephrin type-B receptor 4 (Homo sapiens) (UniProt P54760); assay: Inhibition of EPHB4 (unknown origin) at 100 nM
[2] = target: Mitogen-activated protein kinase kinase kinase 9 (Homo sapiens) (UniProt P80192); assay: Inhibition of MLK1 (unknown origin) at 100 nM
[3] = target: G protein-coupled receptor kinase 5 (Homo sapiens) (UniProt P34947); assay: Inhibition of GRK5 (unknown origin) at 100 nM
[4] = target: Ephrin type-A receptor 3 (Homo sapiens) (UniProt P29320); assay: Inhibition of EPHA3 (unknown origin) at 100 nM
[5] = target: Myosin light chain kinase (Homo sapiens) (UniProt Q32MK0); assay: Inhibition of MYLK3 (unknown origin) at 100 nM
[6] = target: Serine/threonine-protein kinase Nek2 (Homo sapiens) (UniProt P51955); assay: Inhibition of NEK2 (unknown origin) at 100 nM
[7] = target: Homeodomain-interacting protein kinase 2 (Homo sapiens) (UniProt Q9H2X6); assay: Inhibition of HIPK2 (unknown origin) at 100 nM
[8] = target: Bone morphogenetic protein receptor type-1A (Homo sapiens) (UniProt P36894); assay: Inhibition of BMPR1A (unknown origin) at 100 nM
[9] = target: Calcium/calmodulin-dependent protein kinase type 1D (Homo sapiens) (UniProt Q8IU85); assay: Inhibition of CaMKIdelta (unknown origin) at 100 nM
[10] = target: Serine/threonine-protein kinase BRSK1 (Homo sapiens) (UniProt Q8TDC3); assay: Inhibition of BRSK1 (unknown origin) at 100 nM
[11] = target: Tyrosine-protein kinase Lyn (Homo sapiens) (UniProt P07948); assay: Inhibition of LYNB (unknown origin) at 100 nM
[12] = target: Activin receptor type-1 (Homo sapiens) (UniProt Q04771); assay: Inhibition of ALK2 (unknown origin) at 100 nM
[13] = target: Calcium/calmodulin-dependent protein kinase kinase 2 (Homo sapiens) (UniProt Q96RR4); assay: Inhibition of CAMKK2 (unknown origin) at 100 nM
[14] = target: Mitogen-activated protein kinase 10 (Homo sapiens) (UniProt P53779); assay: Inhibition of JNK3 (unknown origin) at 100 nM
[15] = target: Protein kinase C theta type (Homo sapiens) (UniProt Q04759); assay: Inhibition of PKCtheta (unknown origin) at 100 nM
[16] = target: Ribosomal protein S6 kinase alpha-5 (Homo sapiens) (UniProt O75582); assay: Inhibition of MSK1 (unknown origin) at 100 nM
[17] = target: Protein kinase C alpha type (Homo sapiens) (UniProt P17252); assay: Inhibition of PKCalpha (unknown origin) at 100 nM
[18] = target: Vascular endothelial growth factor receptor 1 (Homo sapiens) (UniProt P17948); assay: Inhibition of FLT1 (unknown origin) at 100 nM
[19] = target: RAC-gamma serine/threonine-protein kinase (Homo sapiens) (UniProt Q9Y243); assay: Inhibition of AKT3 (unknown origin) at 100 nM
[20] = target: Casein kinase I isoform gamma-1 (Homo sapiens) (UniProt Q9HCP0); assay: Inhibition of CK1gamma1 (unknown origin) at 100 nM
[21] = target: Serine/threonine-protein kinase PAK 3 (Homo sapiens) (UniProt O75914); assay: Inhibition of PAK3 (unknown origin) at 100 nM
[22] = target: Cyclin-dependent kinase 7/ cyclin H (Homo sapiens) (UniProt P51946+P50613); assay: Inhibition of CDK7/cyclinH (unknown origin) at 100 nM; assay type: protein-complex assay
[23] = target: Mitogen-activated protein kinase 3 (Homo sapiens) (UniProt P27361); assay: Inhibition of ERK1 (unknown origin) at 100 nM
[24] = target: NUAK family SNF1-like kinase 1 (Homo sapiens) (UniProt O60285); assay: Inhibition of ARK5 (unknown origin) at 100 nM
[25] = target: Platelet-derived growth factor receptor alpha (Homo sapiens) (UniProt P16234); assay: Inhibition of PDGFRalpha (unknown origin) at 100 nM
[26] = tested on: Fibroblast growth factor receptor 3 (Homo sapiens), P22607 [K650E]; assay: Inhibition of FGFR3 K650E mutant (unknown origin) at 100 nM
[27] = target: Casein kinase I isoform delta (Homo sapiens) (UniProt P48730); assay: Inhibition of CK1delta (unknown origin) at 100 nM
[28] = target: cGMP-dependent protein kinase 2 (Homo sapiens) (UniProt Q13237); assay: Inhibition of PKG2 (unknown origin) at 100 nM
[29] = target: Ephrin type-B receptor 2 (Homo sapiens) (UniProt P29323); assay: Inhibition of EPHB2 (unknown origin) at 100 nM
[30] = target: Tyrosine-protein kinase Fgr (Homo sapiens) (UniProt P09769); assay: Inhibition of FGR (unknown origin) at 100 nM
[31] = target: Serine/threonine-protein kinase 25 (Homo sapiens) (UniProt O00506); assay: Inhibition of YSK1 (unknown origin) at 100 nM
[32] = target: Maternal embryonic leucine zipper kinase (Homo sapiens) (UniProt Q14680); assay: Inhibition of MELK (unknown origin) at 100 nM
[33] = target: LIM domain kinase 2 (Homo sapiens) (UniProt P53671); assay: Inhibition of LIMK2 (unknown origin) at 100 nM
[34] = target: Rho-associated protein kinase 2 (Homo sapiens) (UniProt O75116); assay: Inhibition of ROCK2 (unknown origin) at 100 nM
[35] = target: Serine/threonine-protein kinase 16 (Homo sapiens) (UniProt O75716); assay: Inhibition of STK16 (unknown origin) at 100 nM
[36] = target: Tyrosine-protein kinase Tec (Homo sapiens) (UniProt P42680); assay: Inhibition of TEC (unknown origin) at 100 nM
[37] = target: Serine/threonine-protein kinase B-raf (Homo sapiens) (UniProt P15056); assay: Inhibition of B-Raf (unknown origin) at 100 nM
[38] = target: cAMP-dependent protein kinase catalytic subunit PRKX (Homo sapiens) (UniProt P51817); assay: Inhibition of PRKX (unknown origin) at 100 nM
[39] = target: Tyrosine-protein kinase ABL2 (Homo sapiens) (UniProt P42684); assay: Inhibition of ARG (unknown origin) at 100 nM
[40] = target: Rhodopsin kinase GRK7 (Homo sapiens) (UniProt Q8WTQ7); assay: Inhibition of GRK7 (unknown origin) at 100 nM
[41] = target: Protein kinase C epsilon type (Homo sapiens) (UniProt Q02156); assay: Inhibition of PKCepsilon (unknown origin) at 100 nM
[42] = target: Mitogen-activated protein kinase 9 (Homo sapiens) (UniProt P45984); assay: Inhibition of JNK2 (unknown origin) at 100 nM
[43] = target: MAP/microtubule affinity-regulating kinase 4 (Homo sapiens) (UniProt Q96L34); assay: Inhibition of MARK4 (unknown origin) at 100 nM

Chain of Myosin light chain kinase (Homo sapiens) (Q32MK0 whole entry): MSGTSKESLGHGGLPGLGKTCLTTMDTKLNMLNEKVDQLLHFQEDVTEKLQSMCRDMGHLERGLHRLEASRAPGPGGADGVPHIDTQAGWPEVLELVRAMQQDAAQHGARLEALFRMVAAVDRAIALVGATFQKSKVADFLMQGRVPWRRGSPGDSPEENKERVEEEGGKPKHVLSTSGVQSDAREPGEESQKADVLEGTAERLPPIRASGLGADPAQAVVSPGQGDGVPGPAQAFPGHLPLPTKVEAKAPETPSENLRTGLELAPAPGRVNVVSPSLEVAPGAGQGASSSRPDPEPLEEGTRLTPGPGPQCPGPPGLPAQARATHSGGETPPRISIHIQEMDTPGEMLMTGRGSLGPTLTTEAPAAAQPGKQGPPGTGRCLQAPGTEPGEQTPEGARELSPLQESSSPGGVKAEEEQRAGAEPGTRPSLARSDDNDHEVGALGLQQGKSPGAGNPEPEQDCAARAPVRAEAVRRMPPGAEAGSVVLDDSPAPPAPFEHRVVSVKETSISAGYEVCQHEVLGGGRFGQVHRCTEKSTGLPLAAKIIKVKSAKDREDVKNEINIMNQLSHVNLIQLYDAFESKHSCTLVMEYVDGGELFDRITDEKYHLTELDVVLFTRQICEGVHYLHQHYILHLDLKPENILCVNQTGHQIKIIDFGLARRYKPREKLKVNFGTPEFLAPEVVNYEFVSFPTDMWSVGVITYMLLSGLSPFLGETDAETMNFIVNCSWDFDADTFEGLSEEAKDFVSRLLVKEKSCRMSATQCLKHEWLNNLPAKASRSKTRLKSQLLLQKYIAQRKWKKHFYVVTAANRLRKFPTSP
Chain of Serine/threonine-protein kinase 25 (Homo sapiens) (O00506 whole entry, looked up): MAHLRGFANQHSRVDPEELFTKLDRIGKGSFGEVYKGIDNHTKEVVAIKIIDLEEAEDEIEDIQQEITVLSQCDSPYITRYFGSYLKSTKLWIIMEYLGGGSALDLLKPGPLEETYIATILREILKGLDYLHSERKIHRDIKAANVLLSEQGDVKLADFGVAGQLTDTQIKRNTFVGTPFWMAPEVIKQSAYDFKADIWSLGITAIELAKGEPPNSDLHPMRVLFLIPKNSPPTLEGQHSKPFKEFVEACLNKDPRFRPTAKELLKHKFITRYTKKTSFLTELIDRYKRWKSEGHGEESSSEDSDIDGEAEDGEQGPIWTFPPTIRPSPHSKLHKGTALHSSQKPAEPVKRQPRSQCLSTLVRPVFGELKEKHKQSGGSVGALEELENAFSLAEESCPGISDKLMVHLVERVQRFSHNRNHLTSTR
Chain of Fibroblast growth factor receptor 3 (Homo sapiens), P22607 [K650E] (P22607 whole entry K650E, canonical isoform): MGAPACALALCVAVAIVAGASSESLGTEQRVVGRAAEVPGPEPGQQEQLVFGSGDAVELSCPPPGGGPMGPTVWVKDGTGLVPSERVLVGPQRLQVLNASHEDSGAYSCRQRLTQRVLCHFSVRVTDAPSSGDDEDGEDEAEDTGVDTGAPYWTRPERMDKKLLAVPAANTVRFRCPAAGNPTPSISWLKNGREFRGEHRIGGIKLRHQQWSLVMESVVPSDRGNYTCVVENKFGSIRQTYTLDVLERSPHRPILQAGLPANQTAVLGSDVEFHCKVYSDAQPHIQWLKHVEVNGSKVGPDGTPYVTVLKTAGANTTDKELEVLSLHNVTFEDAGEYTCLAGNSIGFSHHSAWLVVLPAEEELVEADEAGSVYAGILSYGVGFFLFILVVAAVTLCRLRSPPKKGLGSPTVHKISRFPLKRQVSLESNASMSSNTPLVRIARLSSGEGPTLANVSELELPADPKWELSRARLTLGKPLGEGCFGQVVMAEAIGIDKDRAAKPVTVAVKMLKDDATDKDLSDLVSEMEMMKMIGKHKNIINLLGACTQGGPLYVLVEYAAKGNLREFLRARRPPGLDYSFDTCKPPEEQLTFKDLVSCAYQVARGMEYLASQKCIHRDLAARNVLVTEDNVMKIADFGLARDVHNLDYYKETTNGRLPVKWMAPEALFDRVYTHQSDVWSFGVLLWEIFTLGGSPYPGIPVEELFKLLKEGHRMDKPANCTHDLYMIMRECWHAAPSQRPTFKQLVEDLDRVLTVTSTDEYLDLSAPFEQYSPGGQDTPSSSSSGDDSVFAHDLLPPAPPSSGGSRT
Chain of Rho-associated protein kinase 2 (Homo sapiens) (O75116 whole entry, looked up): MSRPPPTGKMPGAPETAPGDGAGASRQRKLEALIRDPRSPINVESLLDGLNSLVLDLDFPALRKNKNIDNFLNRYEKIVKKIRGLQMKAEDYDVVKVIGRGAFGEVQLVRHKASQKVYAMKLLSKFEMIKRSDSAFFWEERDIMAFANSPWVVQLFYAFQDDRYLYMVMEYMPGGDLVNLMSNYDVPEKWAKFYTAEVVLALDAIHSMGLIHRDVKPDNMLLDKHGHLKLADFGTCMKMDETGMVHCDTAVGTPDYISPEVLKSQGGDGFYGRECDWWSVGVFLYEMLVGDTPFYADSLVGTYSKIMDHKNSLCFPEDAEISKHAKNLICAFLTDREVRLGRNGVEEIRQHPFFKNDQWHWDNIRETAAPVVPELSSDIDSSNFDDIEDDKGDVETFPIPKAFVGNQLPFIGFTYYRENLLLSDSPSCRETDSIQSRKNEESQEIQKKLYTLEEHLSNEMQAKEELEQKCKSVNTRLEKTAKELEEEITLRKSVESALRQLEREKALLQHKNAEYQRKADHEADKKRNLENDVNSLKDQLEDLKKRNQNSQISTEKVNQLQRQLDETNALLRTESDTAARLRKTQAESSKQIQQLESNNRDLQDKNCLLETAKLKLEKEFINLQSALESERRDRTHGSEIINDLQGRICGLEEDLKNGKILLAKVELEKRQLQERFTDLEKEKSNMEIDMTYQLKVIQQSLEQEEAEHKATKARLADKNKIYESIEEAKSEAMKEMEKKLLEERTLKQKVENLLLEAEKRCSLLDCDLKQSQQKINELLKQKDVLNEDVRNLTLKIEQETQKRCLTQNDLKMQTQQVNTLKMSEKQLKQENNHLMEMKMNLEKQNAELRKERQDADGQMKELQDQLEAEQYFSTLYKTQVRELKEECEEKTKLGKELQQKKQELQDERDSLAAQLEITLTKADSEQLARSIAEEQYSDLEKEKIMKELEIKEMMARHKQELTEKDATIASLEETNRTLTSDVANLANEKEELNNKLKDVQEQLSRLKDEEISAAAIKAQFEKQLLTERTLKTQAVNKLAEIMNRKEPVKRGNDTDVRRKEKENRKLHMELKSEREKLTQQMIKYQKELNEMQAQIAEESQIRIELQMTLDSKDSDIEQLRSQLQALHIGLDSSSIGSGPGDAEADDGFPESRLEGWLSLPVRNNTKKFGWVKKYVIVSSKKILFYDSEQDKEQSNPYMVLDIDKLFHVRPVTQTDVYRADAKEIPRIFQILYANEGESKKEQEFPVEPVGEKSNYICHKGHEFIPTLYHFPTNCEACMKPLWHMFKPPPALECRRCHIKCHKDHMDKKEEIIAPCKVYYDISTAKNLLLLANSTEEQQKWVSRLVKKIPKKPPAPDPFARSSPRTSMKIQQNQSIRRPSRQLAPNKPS
Chain of Casein kinase I isoform delta (Homo sapiens) (P48730 whole entry, looked up, canonical isoform): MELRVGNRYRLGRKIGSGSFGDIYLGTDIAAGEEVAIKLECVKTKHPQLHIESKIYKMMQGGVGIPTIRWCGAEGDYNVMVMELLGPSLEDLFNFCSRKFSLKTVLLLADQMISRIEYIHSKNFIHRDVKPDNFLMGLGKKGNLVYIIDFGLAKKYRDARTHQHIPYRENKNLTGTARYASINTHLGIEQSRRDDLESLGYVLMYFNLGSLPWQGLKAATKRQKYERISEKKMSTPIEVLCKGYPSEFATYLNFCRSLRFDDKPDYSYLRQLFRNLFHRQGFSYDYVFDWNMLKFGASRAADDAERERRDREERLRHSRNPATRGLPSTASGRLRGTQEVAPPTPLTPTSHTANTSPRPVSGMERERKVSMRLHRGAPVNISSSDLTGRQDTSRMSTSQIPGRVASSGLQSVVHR
Chain of Maternal embryonic leucine zipper kinase (Homo sapiens) (Q14680 whole entry, looked up, the tested form may be a part): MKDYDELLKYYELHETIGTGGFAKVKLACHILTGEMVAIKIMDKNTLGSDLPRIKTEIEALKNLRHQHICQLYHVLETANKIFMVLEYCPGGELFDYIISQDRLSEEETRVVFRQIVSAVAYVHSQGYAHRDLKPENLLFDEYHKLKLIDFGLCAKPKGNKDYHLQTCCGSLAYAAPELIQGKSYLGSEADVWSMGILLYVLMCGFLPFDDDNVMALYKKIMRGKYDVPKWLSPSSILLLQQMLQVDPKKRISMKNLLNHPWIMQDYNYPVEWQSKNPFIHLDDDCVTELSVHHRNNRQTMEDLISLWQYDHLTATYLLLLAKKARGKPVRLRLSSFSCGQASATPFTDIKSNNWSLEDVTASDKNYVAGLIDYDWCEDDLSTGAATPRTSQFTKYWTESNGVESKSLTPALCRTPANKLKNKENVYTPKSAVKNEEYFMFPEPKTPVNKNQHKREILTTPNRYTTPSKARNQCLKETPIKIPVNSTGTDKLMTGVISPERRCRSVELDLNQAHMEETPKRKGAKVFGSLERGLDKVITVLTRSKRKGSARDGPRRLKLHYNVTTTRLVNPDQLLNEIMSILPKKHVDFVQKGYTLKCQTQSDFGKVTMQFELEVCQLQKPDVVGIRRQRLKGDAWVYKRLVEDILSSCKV
Chain of Bone morphogenetic protein receptor type-1A (Homo sapiens) (P36894 whole entry): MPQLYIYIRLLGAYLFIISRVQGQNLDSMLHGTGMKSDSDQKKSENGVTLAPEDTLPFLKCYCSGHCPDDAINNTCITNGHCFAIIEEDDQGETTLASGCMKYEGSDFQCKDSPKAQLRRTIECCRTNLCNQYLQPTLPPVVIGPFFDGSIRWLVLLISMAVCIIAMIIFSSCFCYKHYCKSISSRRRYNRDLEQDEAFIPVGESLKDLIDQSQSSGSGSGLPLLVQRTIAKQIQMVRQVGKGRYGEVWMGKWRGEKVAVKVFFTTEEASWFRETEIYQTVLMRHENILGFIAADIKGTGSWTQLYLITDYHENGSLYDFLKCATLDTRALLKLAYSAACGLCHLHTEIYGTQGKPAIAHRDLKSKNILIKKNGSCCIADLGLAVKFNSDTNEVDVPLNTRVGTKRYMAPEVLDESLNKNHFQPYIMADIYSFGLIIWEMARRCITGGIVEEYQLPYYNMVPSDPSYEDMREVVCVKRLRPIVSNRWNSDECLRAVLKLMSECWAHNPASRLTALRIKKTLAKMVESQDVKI

- Drug metabolism (Hepatocyte): metabolite_detected
SMILES: CC1(C)OCc2c(Nc3n[nH]c4c(Cl)cccc34)nc(-c3cn[nH]c3)nc21

- inhibition [1]: 40.7%
- inhibition [2]: 2.9%
- inhibition [3]: -1.4%
- inhibition [4]: 4.2%
- inhibition [5]: 20.6%
- inhibition [6]: 7.7%
- inhibition [7]: 1.3%
- inhibition [8]: 16.8%
- inhibition [9]: -5.3%
- inhibition [10]: 1.7%
- inhibition [11]: 89.4%
- inhibition [12]: 30.3%
- inhibition [13]: 1.8%
- inhibition [14]: 18.6%
- inhibition [15]: 4.5%
- inhibition [16]: 11.5%
- inhibition [17]: 7%
- inhibition [18]: 71.8%
- inhibition [19]: 10.4%
- inhibition [20]: 1.3%
- inhibition [21]: 8.9%
- inhibition [22]: 14.3%
- inhibition [23]: 10.9%
- inhibition [24]: 11.6%
- inhibition [25]: 57.1%
- inhibition [26]: 38.8%
- inhibition [27]: 13.1%
- inhibition [28]: -8.9%
- inhibition [29]: 15.3%
- inhibition [30]: 83.7%
- inhibition [31]: 5.1%
- inhibition [32]: 12.3%
- inhibition [33]: -2.1%
- inhibition [34]: -10%
- inhibition [35]: 29.5%
- inhibition [36]: 0.1%
- inhibition [37]: 59.3%
- inhibition [38]: 8.4%
- inhibition [39]: 69.5%
- inhibition [40]: 0.8%
- inhibition [41]: 4.9%
- inhibition [42]: 44.8%
- inhibition [43]: 2.5%
SMILES: CC1(C)OCc2c(Nc3n[nH]c4ccccc34)nc(-c3cn[nH]c3)nc21
